Seven compounds from patent US20070135399A1, “Heteroaromatic sulphonamide prodrugs” (priority 2005, published 2007) can be followed below.

The target of data set [1] is human carboanhydrase I (Homo sapiens, UniProt P00915). The data set can be described thus: Carboanhydrase inhibition, photometric, nitrophenyl acetate conversion (CA I). The class given is biochemical. The text has this: (§1) a) Carboanhydrase Inhibition
(§2) Photometric determination of the inhibition of human carboanhydrase I or II by sulphonamides or sulphamates on microtitre plates with the aid of the enzymatic conversion of nitrophenyl acetate with a colour change from colourless to yellow.

Data set [2] can be described thus: Blood-plasma concentration ratio in heparinized rat blood.
Experimental: b) Blood-plasma concentration ratio—test principle and experimental description:
The blood-plasma ratio is calculated from the measured concentration and the theoretical concentration.
Data set [3] addresses human carboanhydrase II (Homo sapiens, UniProt P00918). Briefly: Carboanhydrase inhibition, photometric, nitrophenyl acetate conversion (CA II). The data set is classed as biochemical.
Source text: as §1, §2

[4] abbreviates: human carboanhydrase I, read-out: CA I IC50.
Setting [5] is: freshly obtained heparinized whole blood.
Where [6] appears, read: human carboanhydrase II, read-out: CA II IC50.

Like-named read-outs stand apart in the source and are kept apart here.

Sequence of human carboanhydrase I (P00915 whole entry): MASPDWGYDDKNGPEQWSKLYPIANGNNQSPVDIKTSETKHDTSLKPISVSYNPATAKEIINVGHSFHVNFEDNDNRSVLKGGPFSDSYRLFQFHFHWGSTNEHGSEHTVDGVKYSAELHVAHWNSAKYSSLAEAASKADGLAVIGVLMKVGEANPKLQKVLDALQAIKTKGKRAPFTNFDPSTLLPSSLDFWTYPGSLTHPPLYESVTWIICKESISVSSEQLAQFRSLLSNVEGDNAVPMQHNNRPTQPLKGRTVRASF

A word on the IC50: it is the concentration needed to halve the response being measured. As for `C[C@]12CC[C@@H]3c4ccc(O)cc4CC[C@H]3[C@@H]1CC[C@@H]2OC(=O)c1cc(S(N)(=O)=O)sc1Br` [Compound 4, 3-Hydroxyoestra-1,3,5(10)-trien-17β-yl 2′-bromo-5′-sulphamoylthiophene-3′-carboxylate], the IC50 in data set [1] (setting [4]) was 3300 nM; in data set [3] (setting [6]) it was 47 nM. Moreover, the blood plasma ratio in data set [2] (setting [5]) is 9.5.
With `CCc1sc(S(N)(=O)=O)cc1C(=O)O[C@H]1CC[C@H]2[C@@H]3CCc4cc(O)ccc4[C@H]3CC[C@]12C` [Compound 3, 3-Hydroxyoestra-1,3,5(10)-trien-17β-yl 2′-ethyl-5′-sulphamoylthiophene-3′-carboxylate], the IC50 in data set [1] (setting [4]) stood at 3400 nM; in data set [3] (setting [6]) it was 42 nM. Moreover, in data set [2] (setting [5]), the blood plasma ratio is 1.8.
Regarding `C[C@]12CC[C@@H]3c4ccc(O)cc4CC[C@H]3[C@@H]1CC[C@@H]2OC(=O)c1ccc(S(N)(=O)=O)nc1` [Compound 1, 3-Hydroxyoestra-1,3,5(10)-trien-17β-yl 6′-sulphamoylnicotinate], the 50% inhibitory concentration (IC50) in data set [1] (setting [4]) came out at 2900 nM; in data set [3] (setting [6]), 31 nM.
On to `C[C@]12CC[C@@H]3c4ccc(OS(N)(=O)=O)cc4CC[C@H]3[C@@H]1CC[C@@H]2O` [Oestradiol 3-sulphamate, reference compound], for which the Blood/plasma ratio result was “About 50”. The IC50 in data set [1] (setting [4]) was found to be 157 ± 10.6 nM. In data set [3] (setting [6]), the 50% inhibitory concentration (IC50) is 34 nM.
Regarding `C[C@]12CC[C@H]3[C@@H](CCC4=CC(=O)CC[C@@]43C)[C@@H]1CC[C@@H]2OC(=O)c1cncc(S(N)(=O)=O)c1` [Compound 6, 3-Oxoandrost-4-en-17β-yl 5′-sulphamoylnicotinate], the results for the half-inhibitory concentration (IC50) in data set [1] and in data set [3] were 2900 nM and 250 nM, respectively. Also, the blood plasma ratio in data set [2] is 5.7.
The matching figures for `C[C@]12CC[C@H]3[C@@H](CCC4=CC(=O)CC[C@@]43C)[C@@H]1CC[C@@H]2OC(=O)c1ccc(S(N)(=O)=O)nc1` [Compound 5, 3-Oxoandrost-4-en-17β-yl 6′-sulphamoylnicotinate]: 3200 nM, 41 nM and 3.6.
`C[C@]12CC[C@@H]3c4ccc(O)cc4CC[C@H]3[C@@H]1CC[C@@H]2OC(=O)c1cncc(S(N)(=O)=O)c1` [Compound 2, 3-Hydroxyoestra-1,3,5(10)-trien-17β-yl 5′-sulphamoylnicotinate]: the results for the half-maximal inhibitory concentration (IC50) in data set [1] (setting [4]) and in data set [3] (setting [6]) were 2100 nM and 160 nM, respectively. In addition, in data set [2] (setting [5]), the blood plasma ratio was found to be 2.
